Source: US4288596A, “Furoindoles” (priority 1978, dated 1981)
Where a name gives a salt, the structure may show the parent alone.

Tests used:
[1] = Analgesic effect by D'Amour-Smith's method; assay type: in vivo, mice of ddY strain; settings: Mus musculus; oral, mice; reaction time at 30, 60, 90 and 120 min; read-out: Analgesic action (ED50), D'Amour-Smith's method
Experimental: Test 3: ANALGESIC EFFECT BY D'AMOUR-[…] METHOD (D'Amour et al., J. Pharmacol. Exp. Ther., 72, 74 (1941)) Ten mice of ddY strain weighing 18-24 g and showing reaction times of 2-5 seconds were used in testing each compound. The reaction time was measured at 30, 60, 90 and 120 minutes after oral administration of the test compounds and positive analgesic response was recorded when the reaction time was two or more times longer than pre-administration. ED50 values were calculated from the number of positive mice.

[2] = Analgesic effect by acetic acid writhing method; assay type: in vivo, mice of ddY strain; settings: Mus musculus, 20 min; oral, mice; 0.7% acetic acid i.p. 20 min after dosing; read-out: Analgesic action (ED50), Writhing method
Experimental: Test 1: ANALGESIC EFFECT BY ACETIC ACID WRITHING METHOD (Koster et al., Fed Proc., 18, 412 (1959))
Ten mice of ddY strain weighing 18-24 g were used in testing each compound. Twenty minutes after oral administration of test compounds, 0.1 ml/10 g of 0.7% acetic acid solution was injected intraperitoneally and the number of writhing syndromes was recorded for 10 minutes from 10 minutes after acetic acid injection. ED50 values were calculated from inhibition percent for each test compound.

[3] = Analgesic effect by tail pressure method; assay type: in vivo, mice of ddY strain; settings: Mus musculus; oral, mice; pain threshold at 30, 60, 90 and 120 min; read-out: Analgesic action (ED50), Tail pressure method
Experimental: Test 2: ANALGESIC EFFECT BY TAIL PRESSURE METHOD (Keijiro Takagi et al., Yakugaku Zasshi, 78, 553 ([…])) Ten mice of ddY strain weighing 18-24 g and showing pain threshold of 50-80 mmHg were used in testing each compound. The pain threshold was measured at 30, 60, 90 and 120 minutes after oral administration of the test compounds and positive analgesic response was recorded when the pain threshold was two or more times higher than pre-administration. ED50 values were calculated from the numbers of positive mice.

[4] = Anti-inflammatory effect by carrageenin edema method; assay type: in vivo, male rats of Wistar strain; settings: rats; for Ratio of antiedematous action (100 mg/kg test compound/100 mg/kg phenylbutazone): ratio of inhibition % at 100 mg/kg oral, values marked * in the anti-inflammatory column; for ED50: Rattus norvegicus, oral, carrageenin edema, foot volume at 3 hours, read-out: Anti-inflammatory action (ED50)
Experimental: Test 4: ANTI-INFLAMMATORY EFFECT BY CARRAGEENIN EDEMA METHOD (Winter et al., Proc. Soc. Exp. Biol. Med., 111, 544 (1962)) Six male rats of Wistar strain weighing 110-120 g were used in testing each compound. […] ED50 values were calculated from the inhibition percent of foot volume, and the ratios of anti-edematous action of test compounds were calculated by the formula; (the inhibition % of 100 mg/kg test compounds)/(the inhibition % of 100 mg/kg phenylbutazone).

in vivo = assay: in vivo; parameters: species or system male rats of Wistar strain; settings: rat, po
Experimental: Test 5: ULCERATION IN STOMACH (Brodie et al., Gastroenterology, 56, 206 (1969))
Ten male rats of Wistar strain weighing 190-200 g were used for each dose. Rats were deprived of food for 24 hours before experiments. Test compounds were administered orally and 18 hours later the rats were sacrificed, thereafter the area of each gastric lesion was measured and summed under dissecting microscope (×9). UD50 values were calculated from the gastric lesion area.

SMILES	ED50 [1] [mg/kg]	ED50 [2] [mg/kg]	ED50 [3] [mg/kg]	Ratio of antiedematous action (100 mg/kg test compound/100 mg/kg phenylbutazone) [4]	TD50 at 18 h (in vivo) [mg/kg]	ED50 [4] [mg/kg]
Cc1c(N(C)C)c(=O)n(-c2ccccc2)n1C [Aminopyrin, reference compound]	225	38	98	–	–	–
Cn1c2ccccc2c2oc(C(=O)NCCCN3CCCCC3)cc21 [Compound No. 2, 4-methyl-furo[3,2-b]indole-2-(N-piperidinopropyl)carboxamide]	115	36	68	0.82	–	–
O=C(NCCCN1CCCCC1)c1cc2[nH]c3cc(Cl)ccc3c2o1 [Compound No. 5, 6-chloro-furo[3,2-b]indole-2-(N-piperidinopropyl)carboxamide]	100	64.2	80	0.73	400	–
Cn1c2cc(Cl)ccc2c2oc(C(=O)NCCCN3CCCCC3)cc21 [Compound No. 6, 6-chloro-4-methyl-furo[3,2-b]indole-2-(N-piperidinopropyl)carboxamide]	59	29.5	50	1.29	–	–
CCn1c2cc(Cl)ccc2c2oc(C(=O)NCCCN3CCCCC3)cc21 [Compound No. 7, 6-chloro-4-ethyl-furo[3,2-b]indole-2-(N-piperidinopropyl)carboxamide]	31	56.4	41.8	1.45	–	–
CC(C)n1c2cc(Cl)ccc2c2oc(C(=O)NCCCN3CCCCC3)cc21 [Compound No. 8, 6-chloro-4-isopropyl-furo[3,2-b]indole-2-(N-piperidinopropyl)carboxamide]	100	68.4	87	0.56	–	–
Cn1c2cc(C(F)(F)F)ccc2c2oc(C(=O)NCCCN3CCCCC3)cc21 [Compound No. 10, 4-methyl-6-trifluoromethyl-furo[3,2-b]indole-2-(N-piperidinopropyl)carboxamide]	49	32.5	38	–	> 200	45.4
CCn1c2cc(C(F)(F)F)ccc2c2oc(C(=O)NCCCN3CCCCC3)cc21 [Compound No. 11, 4-ethyl-6-trifluoromethyl-furo[3,2-b]indole-2-(N-piperidinopropyl)carboxamide]	50	30	41	1.29	–	–
CC(C)n1c2cc(C(F)(F)F)ccc2c2oc(C(=O)NCCCN3CCCCC3)cc21 [Compound No. 12, 4-isopropyl-6-trifluoromethyl-furo[3,2-b]indole-2-(N-piperidinopropyl)carbonxamide]	300	68.3	93	2.19	351	–
CCn1c2cc(F)ccc2c2oc(C(=O)NCCCN3CCCCC3)cc21 [Compound No. 13, 4-ethyl-6-fluoro-furo[3,2-b]indole-2-(N-piperidinopropyl)carboxamide]	79.9	87.5	90.8	0.84	–	–
CCCn1c2cc(OC)ccc2c2oc(C(=O)NCCCN3CCCCC3)cc21 [Compound No. 14, 6-methoxy-4-n-propyl-furo[3,2-b]-indole-2-(N-piperidinopropyl)carboxamide]	> 100	81.2	84.6	0.92	–	–
CCCn1c2cc(C)ccc2c2oc(C(=O)NCCCN3CCCCC3)cc21 [Compound No. 15, 6-methyl-4-n-propyl-furo[3,2-b]indole-2-(N-piperidinopropyl)carboxamide]	87.6	91	79.2	0.78	–	–
CC(C)Cc1ccc(C(C)C(=O)O)cc1 (centres unmarked) [Ibuprofen, reference compound]	> 300	195	324	–	278	66.5
CCCCC1C(=O)N(c2ccccc2)N(c2ccccc2)C1=O [Phenylbutazone, reference compound]	> 300	123	> 300	–	145	110
O=C(Cn1c(=O)sc2ccc(Cl)cc21)N1CCN(CCO)CC1 [Tiaramide HCl, reference compound]	93	66	110	–	> 200	84.3
